“And” between values parts separate entries of the source, which are not always exact repeats. Identical values can stand only once.
Tests used:
RAW 264.7 cells = assay type: cell-based, murine; settings: for Inhibition of LPS-induced RNI-IC50: LPS-induced (2.5 ng/ml LPS in FIG. 6B)
Method: From the sequence of the CAP18 cDNA, it was apparent that the putative N-terminal peptide of CAP18 was in fact an internal fragment of the CAP18 protein. We therefore tried to reconfirm the original protein sequence. Neutrophil-derived heparin bound cationic proteins were prepared as described above and applied to a C18 reverse phase HPLC (FIG. 1). We sequenced the major peaks. Peaks at fractions 14.5 and 15.2 correspond to defensins MCP1 and MCP2 (Territo et al. (1989) J. Clin. Invest. 84:2017-2019), respectively. Fraction 25.8 is macrophage related protein 14 (MRP14) (Odink et al. (1987) Nature 330:80-82). The fraction at 20.3 minutes corresponds to a fragment of CAP18 of approximately 4-5 kD. […] The murine macrophage cell line RAW 264.7 (obtained from ATCC) and thioglycolate-elicited murine peritoneal exudate cells are used to produce RNI. Cells are cultured at 1×10^6 /ml. in RPMI-1640 +2.5% FCS in 24 well plates in the presence or absence of different concentrations of LPS or murine rlFNγ. After 24 hr. incubation at 37° C. the cell free supernatant is collected and tested for the presence of RNI. Accumulation of nitrite in the medium is measured by a colorimetric assay based on the Griess reaction (Green et al. (1982) Anal. Biochem. 126:11) using sodium nitrite as standards. Sample (50 μl) is mixed with 50 μl of Griess reagent (1% sulfanilamide, 0.1% naphthalene diamine dihydrochloride, 2.5% H3 PO4) and after 10 min. at room temperature absorbance is read at 570 nm.

[1] = test system: Salmonella minnesota ReLPS sensitized sheep erythrocytes; assay: LPS hemagglutination assay (MAC); assay type: binding
Method: For hemagglutination assays, erythrocytes were sensitized with LPS as follows. One ml of 1% erythrocyte suspension (human 0 type, C3H/HeN mouse or sheep) was mixed with 0.2 ml of LPS solution and incubated at 37° C. for 30 min, followed by washing with phosphate buffered saline (PBS), and then the concentration of suspension was adjusted to 1.0%. In the case of S-LPS, the solution was heated at 100° C. for 1 hour before sensitization of erythrocytes. […] Activity of CAP was expressed as a minimum agglutinating concentration (MAC) of CAP. According to the method of Kirikae et al. (1986) Microbiol. Immunol. 30:269-274, 50 μl of 2-fold serial dilution of Re-LPS was added to 50 μl of 1.0% rabbit erythrocyte suspension, and incubated at 37° C. for 3, hour. Minimum agglutinating concentration of Re-LPS was expressed as 1 HA unit.

Salmonella typhimurium = assay: Antibacterial CFU assay; settings: for anti-bacterial activity (CFU), words: FIG. 6D; for effect on CFU at high concentrations alone and in various combinations: FIG. 6F
[2] = test system: thioglycolate-stimulated murine peritoneal macrophages; assay: LPS-induced tissue factor generation by macrophages; assay type: cell-based; settings: peptide 1 μg/ml; 6 hr; FIG. 12
Method: […] Cells were cultured for 6 hours prior to assay of tissue factor by clotting assay.
[…] Production of tissue factor after 6 hr. was measured by clotting assay. […] In the absence of LPS no tissue factor is synthesized by these cells.

Salmonella minnesota Re = assay: Antibacterial CFU assay; settings: FIG. 6C
purified human factor X [3] = target: T1, purified human factor X (human, UniProt P00742); assay: cell-based or functional assay
purified human factor X [4] = target: T1, purified human factor X; assay: cell-based or functional assay; remark: listed apart in the source
purified human factor Xa = purified human factor Xa (human, UniProt P00742); assay: cell-based or functional assay
cells = assay: Effect of CAP-37 on LPS-induced tissue factor generation; assay type: cell-based; settings: for Tissue factor, figure in parentheses (relative to control = 1.0) / Tissue Factor / Activity: CAP-37 15 HA; for Activity: LPS alone = 100
Method: Table 6 presents a comparison of the effect of RNIP, CAP18, and defensins HP-1 and HP-2 (Territo et al. (1989) J. Clin. Invest. 84:2017-2019) on LPS-induced tissue factor generation. Tissue factor assays were performed as follows. Mouse peritoneal cells were elicted with an intraperitoneal injection of thioglycolate medium and harvested 5-days later by irrigation with pyrogen-free saline. The cells were washed with RPMI 1640 medium, counted and resuspended at a concentration of 1.5-2.0×10^6 /ml in serum-free RPMI medium containing glutamine (0.29 mg/ml), penicillin (50 units/ml) and streptomycin (50/ml). Adherent cells were prepared by incubating 10 ml of a cell suspension (in RPMI 1640 media in sterile culture bottle (Nunclon, 50 ml, Inter Med) for 60 min. at 37° C. in a 5% CO2 atmosphere. The plastic adherent cells were recovered by scraping of the bottle with a sterile rubber policeman. The adherent cells were then washed twice with RPMI media, resuspended in serum-free medium (1×10^6 /ml) in culture tube (Nunc cryotube, Inter Med), and stimulated with graded doses of LPS for 6 hr. at 37° C. in a 5% CO2. The cell suspension was centrifuged and cell pellet was frozen at -80° C. until clotting assays were run.
Veronal buffered saline (VBS) was added to the cell pellet, lysed by 3 cycles of freeze/thaw and sonicated for 10 sec with a hand-held sonicator microbe (Handy Sonic, model UR-20P, Tomy Seiko LTD, Tokyo). Tissue factor activity was tested in modified unactivated partial thromboplastin time (7). One tenth ml of cell lysate (1×10^6 /ml) was preincubated with mouse plasma at 37° C. for 3 min. Then 0.1 ml of 25 mM-CaCl2 which contains phospholipid was added to the mixture and clotting time was measured using a fibrometer (Bio Quest Division, Becton Dickinson, Cokeysville, USA). A standard curve obtained from serial two-fold dilutions of rabbit brain thromboplastic (Simplastin, Ono Pharmaceutical Co.) was used to transpose tissue factor activity into arbitrary tissue factor units (1 μg/ml) suspension of rabbit brain was assigned a value of 1,000 units).
.dagger. LPS was incubated with CAP37 at 37° C. for 2 hours, and
the mixture was added to cells, then cultured for 6 hours.

187: synthetic rabbit RNIP-derived fragment, amino acids 151-171 of SEQ ID NO:4 (LKKIGQKIQGLLPKLAPRTDY) [compound 187]
activity in hemagglutination and inhibition of LPS-induced RNI (RAW 264.7 cells): inactive
Inhibition of LPS-induced RNI-IC50 (RAW 264.7 cells): > 10 µg/mL
Hemagglutination MAC (minimum agglutinating concentration) [1]: > 125 µg/mL

54-1: synthetic rabbit RNIP-derived fragment, amino acids 139-170 of SEQ ID NO:4 (RLRKFRNKIKEKLKKIGQKIQGLLPKLAPRTD)
Inhibition of LPS-induced RNI-IC50 (RAW 264.7 cells): > 2 µg/mL
Hemagglutination MAC (minimum agglutinating concentration) [1]: > 125 µg/mL

50-2: synthetic rabbit RNIP-derived fragment, amino acids 147-171 of SEQ ID NO:4 (same range printed as 50-1) (IKEKLKKIGQKIQGLLPKLAPRTDY)
Inhibition of LPS-induced RNI-IC50 (RAW 264.7 cells): 0.3 µg/mL
anti-bacterial activity (CFU), words (Salmonella typhimurium): not active
effect on CFU at high concentrations alone and in various combinations (Salmonella typhimurium): No effect
inhibition of LPS induced tissue factor [2]: fail to inhibit
anti-bacterial activity (CFU), words (Salmonella minnesota Re): not active
Hemagglutination MAC (minimum agglutinating concentration) [1]: > 125 µg/mL

polymyxin B [reference compound]
inhibition of LPS-induced RNI production (RAW 264.7 cells; LPS 5ng/ml, FIG. 4): inhibition

21-1: synthetic rabbit RNIP-derived fragment, amino acids 135-151 of SEQ ID NO:4 (GLRKRLRKFRNKIKEKL)
Inhibition of LPS-induced RNI-IC50 (RAW 264.7 cells): > 2 µg/mL
Hemagglutination MAC (minimum agglutinating concentration) [1]: > 125 µg/mL

52-2: synthetic rabbit RNIP-derived fragment, amino acids 143-170 of SEQ ID NO:4 (FRNKIKEKLKKIGQKIQGLLPKLAPRTD)
Inhibition of LPS-induced RNI-IC50 (RAW 264.7 cells): > 2 µg/mL
Hemagglutination MAC (minimum agglutinating concentration) [1]: > 125 µg/mL

52-3: synthetic rabbit RNIP-derived fragment, amino acids 132-171 of SEQ ID NO:4 as printed (EPTGLRKRLRKFRNKIKEKLKKIGQKIQGLLPKLAPRTDY)
Inhibition of LPS-induced RNI-IC50 (RAW 264.7 cells): > 2 µg/mL
Hemagglutination MAC (minimum agglutinating concentration) [1]: > 125 µg/mL

32-1: synthetic rabbit RNIP-derived fragment, amino acids 135-143 of SEQ ID NO:4 (GLRKRLRKF)
Inhibition of LPS-induced RNI-IC50 (RAW 264.7 cells): > 2 µg/mL
anti-bacterial activity (CFU), words (Salmonella typhimurium): not active
effect on CFU at high concentrations alone and in various combinations (Salmonella typhimurium): No effect
effect of pretreatment with peptide 32-1 on bacterial killing by peptide 197 (Salmonella typhimurium; FIG. 6G): no inhibition or augmentation
inhibition of LPS induced tissue factor [2]: fail to inhibit
anti-bacterial activity (CFU), words (Salmonella minnesota Re): not active
Hemagglutination MAC (minimum agglutinating concentration) [1]: > 125 µg/mL

54-2: synthetic rabbit RNIP-derived fragment, amino acids 139-171 of SEQ ID NO:4 (RLRKFRNKIKEKLKKIGQKIQGLLPKLAPRTDY)
Inhibition of LPS-induced RNI-IC50 (RAW 264.7 cells): > 2 µg/mL
Hemagglutination MAC (minimum agglutinating concentration) [1]: > 125 µg/mL

34-1: synthetic rabbit RNIP-derived fragment, amino acids 140-166 of SEQ ID NO:4 (LRKFRNKIKEKLKKIGQKIQGLLPKLA)
Inhibition of LPS-induced RNI-IC50 (RAW 264.7 cells): > 2 µg/mL
Hemagglutination MAC (minimum agglutinating concentration) [1]: > 125 µg/mL

52-1: synthetic rabbit RNIP-derived fragment, amino acids 143-169 of SEQ ID NO:4 (FRNKIKEKLKKIGQKIQGLLPKLAPRT)
Inhibition of LPS-induced RNI-IC50 (RAW 264.7 cells): > 2 µg/mL
Hemagglutination MAC (minimum agglutinating concentration) [1]: > 125 µg/mL

50-1: synthetic rabbit RNIP-derived fragment, amino acids 147-171 of SEQ ID NO:4 (IKEKLKKIGQKIQGLLPKLAPRTDY)
Inhibition of LPS-induced RNI-IC50 (RAW 264.7 cells): 0.3 µg/mL
Hemagglutination MAC (minimum agglutinating concentration) [1]: > 125 µg/mL

GLRKRLRKFRNKIKEKLKKIGQKIQGLLPKLA [synthetic rabbit RNIP-derived peptide 36-1]
IC50, prothrombin activation by factor Xa (synthetic substrate) (prothrombin (factor II)): < 30 nM
IC50, RVV activation of factor X to Xa (synthetic substrate) (purified human factor X [3]): 10 µg/ml and 1.9 µM
IC50, factor X activation by tissue factor and factor VII (synthetic substrate) (purified human factor X [3]): 100 nM
IC50, Russell Viper Venom induced clotting (purified human factor X [4]): 0.9 µg/ml and 0.2 µM
IC50, Xa-induced clotting (purified human factor Xa): 2.2 µg/ml and 0.4 µM

GLRKRLRKFRNKIKEKLKKIGQKIQGLLPKLAPRTDY
IC50, prothrombin activation by factor Xa (synthetic substrate) (prothrombin (factor II)): 50 nM
IC50, RVV activation of factor X to Xa (synthetic substrate) (purified human factor X [3]): 6.7 µg/ml and 1.1 µM
IC50, Russell Viper Venom induced clotting (purified human factor X [4]): 0.7 µg/ml and 0.1 µM
IC50, Xa-induced clotting (purified human factor Xa): 2.7 µg/ml and 0.5 µM

B1: CAP-37: another cationic peptide CAP37 (azurocidin) (Morgan et al. 1991) (protein, UniProt P20160 27-248, looked up)
Azurocidin: IVGGRKARPRQFPFLASIQNQGRHFCGGALIHARFVMTAASCFQSQNPGVSTVVLGAYDLRRRERQSRQTFSISSMSENGYDPQQNLNDLMLLQLDREANLTSSVTILPLPLQNATVEAGTRCQVAGWGSQRSGGRLSRFPRFVNVTVTPEDQCRPNNVCTGVLTRRGGICNGDGGTPLVCEGLAHGVASFSLGPCGRGPDFFTRVALFRDWIDGVLNNPGP
inhibition of tissue factor generation (cells): unable to inhibit
Tissue factor, figure in parentheses (relative to control = 1.0) (cells; LPS 0.1 μg/ml): 2.3
Tissue Factor (cells; LPS 0.1 μg/ml, LPS alone 412 ± 30): 383 ± 307 units/1 × 10^5 cells
Activity (cells; LPS 0.1 μg/ml): 93.0
Tissue factor, figure in parentheses (relative to control = 1.0) (cells; LPS 1.0 μg/ml): 3.9
Tissue Factor (cells; LPS 1.0 μg/ml, LPS alone 692 ± 27): 648 ± 343 units/1 × 10^5 cells
Activity (cells; LPS 1.0 μg/ml): 93.6
Tissue factor, figure in parentheses (relative to control = 1.0) (cells; no LPS): 1.1
Tissue Factor (cells; no LPS, control 168 ± 95): 183 ± 67 units/1 × 10^5 cells
